Tested on: PS4205 (Pseudomonas aeruginosa)
Test: Zones of inhibition of impregnated devices, modified Kirby-Bauer technique
Format: cell-based
Description: Potassium tert-butoxide in THF, 7.35 ml of 1M solution, was added to a solution of CHX diacetate, 1.533 g; 2.45 mmol in 35 ml THF. The resulting heterogeneous solution was stirred for 20 minutes, then added to a solution GV, 1.0 g; 2.45 mmol, in 30 ml THF (GV used as an example of Triarylmethane Dye). The mixture was stirred at ambient conditions for 1 hour, then placed under the hood overnight to evaporate the solvent. The resulting residue was dissolved in 30 ml DCM (or MeOH). When applicable, the base (such as neutral form of chlorhexidine) is added to a stirring solution of dye (such as GV) in DCM and the resulting mixture is stirred for at least 1 h. With anionic dyes, dissolution is achieved with the addition of at least one equivalent of a quaternary amine (such as tetraethylammonium) prior to addition of the base. One-centimeter device segments were immersed in the DCM solution for the appropriate period, generally PVC and PU for 10 minutes; Silicone (Si) and Silk Suture for 2 hours. The devices were removed from the solution, and traces of solution were removed from the lumen when applicable. The impregnated devices were placed under the hood to dry for at least 4 hours, preferably over night, then washed with distilled water until the washings were colorless or very faint, and finally placed under an aseptic hood to dry under ambient conditions for at least 4 hours, preferably overnight.
The antimicrobial activity of impregnated catheters was evaluated in duplicate by a modified Kirby-Bauer technique. BBL Mueller Hinton II agar plates (obtained from Fisher Scientific) were inoculated with 0.5 McFarland of the appropriate microorganism (hospital isolates from the MD Anderson Cancer Center). Then 10 mm segments of impregnated devices were embedded in the inoculated plates and placed in an incubator at about 37° C. for at least 18 hours. Zones of inhibition were measured perpendicular to the long axis of the device. Bioactivity against yeast constituted of two zones; a large outer zone of partial growth inhibition, and an inner smaller zone of complete inhibition. […]

[1] = PVC and silicone (Si) devices impregnated with the reagent alone

Structure (SMILES)	activity against Pseudomonas aeruginosa [1]	activity against Pseudomonas aeruginosa (after impregnating the surfaces of various polymers, including polyvinylchloride)
[H]/N=C(\N/C(=N/[H])NCCCCCCNC(=N)NC(=N)Nc1ccc(Cl)cc1)Nc1ccc(Cl)cc1 [CHX, chlorhexidine]	no activity	–
CN(C)c1ccc(C(=C2C=CC(=[N+](C)C)C=C2)c2ccc(N(C)C)cc2)cc1 [GV, Gentian violet]	no activity	no activity
